{"source": "patent US10894798B2", "about": "“Substituted dihydropyrrolopyrazole derivative” (UBE INDUSTRIES, LTD., priority 2015, dated 2021)", "data": [{"tested_on": "human large intestine cancer cell line (HCT-116)", "experiment": "Human large intestine cancer (HCT-116) cell growth inhibition test", "format": "cell-based", "settings": "HCT-116, 72 h, culture for 3 days, sulforhodamine B, read-out: GI50 value, HCT-116 cell growth inhibition", "procedure": "The measurement of a human large intestine cancer cell growth inhibitory effect was carried out by modifying the method of Simak et al. (Cancer Research, 69, 6208 (2009)).\nA human large intestine cancer cell line (HCT-116, obtained from DS Pharma Biomedical Co., Ltd.) was cultured in a McCoy's 5A medium (manufactured by Thermo Fisher Scientific, Inc.) containing 10% fetal bovine serum (FBS) (manufactured by Thermo Fisher Scientific, Inc.) and 1% penicillin/streptomycin/amphotericin B (manufactured by Thermo Fisher Scientific, Inc.) and inoculated at 0.5 to 2.0×10^3 cells/well in a 96-well plate. After overnight culture in a carbon dioxide incubator, the medium was replaced with a fresh medium on the next day, and a test compound dissolved in DMSO (final DMSO concentration: 0.1%) was added thereto and left standing in a carbon dioxide incubator. After culture for 3 days, the absorbance thereof was measured by using In Vitro Toxicology Assay Kit Sulforhodamine B based (manufactured by Sigma-Aldrich Co. LLC.).\nThe rate of inhibition of cell growth at each concentration was calculated from the test compound concentration and the absorbance of sulforhodamine B, and the concentration of the test compound necessary for inhibiting 50% of cell growth (GI50 value) was calculated by using EXSUS (version 8.1.0, manufactured by CAC Exicare Corp.).", "units": {"GI50": "nM"}, "values": [{"smiles": "CC[Si](C)(C)C1(C(=O)Nc2n[nH]c3c2CN(C(=O)Nc2ccccc2F)C3(C)C)CCC1", "note": "[IV-4, 3-[1-(Ethyldimethylsilyl)cyclobutanecarboxamido]-N-(2-fluorophenyl)-6,6-dimethyl-4,6-dihydropyrrolo[3,4-c]pyrazole-5(1H)-carboxamide]", "GI50": "≤ 100"}, {"smiles": "CC1(C)c2[nH]nc(NC(=O)C3([Si](C)(C)C)CCC3)c2CN1C(=O)Nc1cccc(F)c1", "note": "[IV-5, N-(3-Fluorophenyl)-6,6-dimethyl-3-[1-(trimethylsilyl)cyclobutanecarboxamido]-4,6-dihydropyrrolo[3,4-c]pyrazole-5(1H)-carboxamide]", "GI50": "≤ 100"}, {"smiles": "CC1(C)c2[nH]nc(NC(=O)C3([Si](C)(C)C)CCC3)c2CN1C(=O)Nc1cccc(Cl)c1", "note": "[IV-11, N-(3-Chlorophenyl)-6,6-dimethyl-3-[1-(trimethylsilyl)cyclobutanecarboxamido]-4,6-dihydropyrrolo[3,4-c]pyrazole-5(1H)-carboxamide]", "GI50": "≤ 100"}, {"smiles": "Cc1ccc(NC(=O)N2Cc3c(NC(=O)C4([Si](C)(C)C)CCC4)n[nH]c3C2(C)C)cc1", "note": "[IV-25, 6,6-Dimethyl-N-(p-tolyl)-3-[1-(trimethylsilyl)cyclobutanecarboxamido]-4,6-dihydropyrrolo[3,4-c]pyrazole-5(1H)-carboxamide]", "GI50": "≤ 100"}, {"smiles": "CCOc1ccccc1NC(=O)N1Cc2c(NC(=O)C3([Si](C)(C)C)CCC3)n[nH]c2C1(C)C", "note": "[IV-81, N-(2-Ethoxyphenyl)-6,6-dimethyl-3-[1-(trimethylsilyl)cyclobutanecarboxamido]-4,6-dihydropyrrolo[3,4-c]pyrazole-5(1H)-carboxamide]", "GI50": "≤ 100"}, {"smiles": "Cc1cccc(NC(=O)N2Cc3c(NC(=O)C4([Si](C)(C)C)CCC4)n[nH]c3C2(C)C)c1F", "note": "[IV-123, N-(2-Fluoro-3-methylphenyl)-6,6-dimethyl-3-[1-(trimethylsilyl)cyclobutanecarboxamido]-4,6-dihydropyrrolo[3,4-c]pyrazole-5 (1H)-carboxamide]", "GI50": "≤ 100"}, {"smiles": "CC1(C)c2[nH]nc(NC(=O)C3([Si](C)(C)C)CCC3)c2CN1C(=O)Nc1cc(F)ccc1Cl", "note": "[IV-191, N-(2-Chloro-5-fluorophenyl)-6,6-dimethyl-3-[1-(trimethylsilyl)cyclobutanecarboxamido]-4,6-dihydropyrrolo[3,4-c]pyrazole-5 (1H)-carboxamide]", "GI50": "≤ 100"}, {"smiles": "CC1(C)c2[nH]nc(NC(=O)C3([Si](C)(C)C)CCC3)c2CN1C(=O)Nc1cc(Cl)ccc1Cl", "note": "[IV-197, N-(2,5-Dichlorophenyl)-6,6-dimethyl-3-[1-(trimethylsilyl)cyclobutanecarboxamido]-4,6-dihydropyrrolo[3,4-c]pyrazole-5(1H)-carboxamide]", "GI50": "≤ 100"}, {"smiles": "Cc1ccc(Cl)c(NC(=O)N2Cc3c(NC(=O)C4([Si](C)(C)C)CCC4)n[nH]c3C2(C)C)c1", "note": "[IV-213, N-(2-Chloro-5-methylphenyl)-6,6-dimethyl-3-[1-(trimethylsilyl)cyclobutanecarboxamido]-4,6-dihydropyrrolo[3,4-c]pyrazole-5 (1H)-carboxamide]", "GI50": "≤ 100"}, {"smiles": "COc1ccc(Cl)c(NC(=O)N2Cc3c(NC(=O)C4([Si](C)(C)C)CCC4)n[nH]c3C2(C)C)c1", "note": "[IV-245, N-(2-Chloro-5-methoxyphenyl)-6,6-dimethyl-3-[1-(trimethylsilyl)cyclobutanecarboxamido]-4,6-dihydropyrrolo[3,4-c]pyrazole-5(1H)-carboxamide]", "GI50": "≤ 100"}]}]}
